Reference: the supplement of paper PMC10949913

Legend:
Assay in all cases: area under concentration-response curve (viability) (AUC (a.u.)); higher = less active
Settings in all cases: 48 h
NCI-H295R = tested on: NCI-H295R
Procedure, shortened: (§1)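 After 48 h of treatment with 23 nL of each library compound at 11 concentrations, three adrenocortical carcinoma cell lines in 1,536-well plates (500–1,000 cells/well, 5 µL medium) were given CellTiter-Glo for 15 minutes at room temperature. Luminescence was then read and normalised per plate to vehicle and empty-well controls. AC50 and area under the curve were drawn from fitted concentration-response curves of inhibitory or non-responding classes only.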

CU-ACC1 = tested on: CU-ACC1
Procedure, shortened: as §1

CU-ACC2 = tested on: CU-ACC2
Procedure, shortened: as §1

Compound	area under concentration-response curve (NCI-H295R)	area under concentration-response curve (CU-ACC1)	area under concentration-response curve (CU-ACC2)
c1ccc(CNCc2ccc(CN3CCCNCCNCCCNCC3)cc2)nc1	542	514	601
CNC(=O)c1ccc(N2C(=S)N(c3ccc(C#N)c(C(F)(F)F)c3)C(=O)C23CCC3)cc1F	534	488	500
COc1ccc(C2CNC(=O)C2)cc1OC1CCCC1 (stereo unspecified)	501	451	538
C[C@H]1CN(CCN1C2=CN=C(NC/3=C/C(=C\N(C)C3=O)C4=CC=NC(=C4CO)N5CC[N]6C7=C(CC(C)(C)C7)C=C6C5=O)C=C2)C8COC8	560	532	618
CN1CCN(CCCNc2ncc(Cl)c(-c3cc4c(C(=O)NC5CC5)cccc4s3)n2)CC1	492	468	557
CC1(C)[C@@H](O[C@H]2O[C@H](C(=O)O)[C@@H](O)[C@H](O)[C@H]2O[C@@H]2O[C@H](C(=O)O)[C@@H](O)[C@H](O)[C@H]2O)CC[C@]2(C)[C@H]3C(=O)C=C4[C@@H]5C[C@@](C)(C(=O)O)CC[C@]5(C)CC[C@@]4(C)[C@]3(C)CC[C@@H]12	567	541	522
COC1=CC=C2[C@H]3CC[C@]4(C)[C@H](CC[C@H]4[C@@H]3CCC2=C1)NCCCCCCN5C(=O)\C=C/C5=O	517	496	460
CC1=CC(=C(O)C(=C1C\C2=N\CCN2)C)C(C)(C)C	496	515	579
COC1=CC=C(C=C1)C/2=C(OC3O[C@@H](C)[C@H](O)[C@@H](O)[C@H]3O)/C(=O)C4=C(O2)C(=C(OC5O[C@H](CO)[C@@H](O)[C@H](O)[C@H]5O)C=C4O)CC=C(C)C (stereo partly specified)	564	510	624
C[C@@H]1[C@H]\2[C@H](O)[C@H]3[C@H](N(C)C)\C(=C(C(N)=O)/C(=O)[C@@]3(O)\C(=C2C(=O)C4=C(O)C=CC=C14)O)O	403	406	325
C[C@]\12CCC(=O)\C=C1[C@@H]3C[C@@H]3[C@@H]4[C@@H]2CC[C@@]5(C)[C@H]4[C@@H]6C[C@@H]6[C@@]57CCC(=O)O7	549	509	602
CCCCCCCCCCCCCCCCCCOP(=O)([O-])OC1CC[N+](C)(C)CC1	449	418	534
NC/1=N/C(=O)N(/C=N1)[C@@H]2O[C@H](CO)[C@@H](O)[C@H]2O	504	469	522
Cc1ccc(-n2c(C)cc(-c3nnc4n3CCCCC4)c2C)cc1	595	575	647
CCCC\1=C(/CNC(=O)C2=CC(=CC3=C2C=N[N]3C(C)C)C4=CC=C(N=C4)N5CCN(CC5)C(C)C)C(=O)NC(=C1)\C	472	379	485
c1cc(-c2sc(-c3ccncc3)c(-c3ccncc3)c2-c2ccncc2)ccn1	565	549	544
COc1ccc(CNC(=O)c2cc(-c3cncc(Cl)c3)cnc2-c2ccccn2)nc1OC	407	430	412
COc1ccc(C(=O)N2CCCC2=O)cc1	573	533	655
Clc1ccc2c(N3CCN(CCCN4CCN(c5ccnc6cc(Cl)ccc56)CC4)CC3)ccnc2c1	451	433	450

Compound	area under concentration-response curve (NCI-H295R)	area under concentration-response curve (CU-ACC1)	area under concentration-response curve (CU-ACC2)
CC1(N)CCN(c2cnc(-c3cccc(Cl)c3Cl)c(N)n2)CC1	577	543	627
CC(=O)NC(C)c1ccc(Oc2ccc(OC(C)C)cc2)cc1 (stereo unspecified)	547	539	605
CC1=C(/C=C/C(C)=C/C=C/C(C)=C/C=C/C=C(C)/C=C/C=C(C)/C=C/C2=C(C)CCCC2(C)C)C(C)(C)CCC1	574	544	617
CCCCCCCCCCCCc1ccc([S+](=O)([O-])Nc2nncs2)cc1	527	543	604
COC(=O)[C@H](Cc1ccccc1)NC(=O)[C@@H](N)CC(=O)O	558	518	618
C=C[C@H]1CN2CCC1C[C@@H]2C(O)c1ccnc2ccc(OC)cc12 (stereo partly specified)	504	509	595
CCOC(=O)C/1=C(C)/NC(=S)NC1C2=CC=CC(=C2)O (stereo unspecified)	526	498	545
CCCCC(F)(F)[C@@]1(O)CC[C@H]2[C@@H](CC(=O)[C@@H]2CCCCCCC(=O)O)O1	541	494	599
C=CCN(/C=C1\C(=O)O[C@@H](COC)[C@]2(C)C1=C(O)C(=O)C1=C2[C@@H](OC(C)=O)C[C@]2(C)C(=O)CC[C@H]12)CC=C	401	340	385
ClC1=CC=C2OC3=C(\N=C(NC3=O)\[C@@H]4CCCN4)C2=C1	534	410	601
C[C@H](NC(=O)CCC(F)(F)F)C(=O)N[C@@H]1C(=O)N(CCO)c2ncccc2-c2ccccc21	475	472	511
CN1\C(=C(\O)C2=CC=CC=C2[S+]1([O-])=O)C(=O)NC3=NC=C(C)S3	511	461	523
COc1cc2nccc(Oc3ccc(NC(=O)Nc4ccc(F)cc4F)c(F)c3)c2cc1OC	515	548	623
CC(C)(C)OC(=O)N[C@H]1CCCCC/C=C\[C@@H]2C[C@@]2(C(=O)N[S+](=O)([O-])C2CC2)NC(=O)[C@@H]2C[C@@H](OC(=O)N3Cc4cccc(F)c4C3)CN2C1=O	472	414	503
CC(C)[C@H](CO)Nc1nc(Nc2ccc(C(=O)O)c(Cl)c2)c2ncn(C(C)C)c2n1	594	529	626
CO[C@H]1O[C@@H]2O[C@@]3(C)CC[C@H]4[C@H](C)CC[C@@H]([C@H]1C)[C@@]24OO3	506	470	553
CCN1C[C@]2(OC(=O)c3ccccc3NC(C)=O)CC[C@H](OC)[C@@]34[C@@H]2C[C@@H]([C@@H]13)[C@@]1(O)C[C@H](OC)[C@H]2C[C@@H]4[C@]1(O)[C@H]2OC	429	416	499
COc1cc(F)c(C(C)C)cc1-c1ccc(C(F)(F)F)cc1CN1C(=O)O[C@H](c2cc(C(F)(F)F)cc(C(F)(F)F)c2)[C@@H]1C	428	421	505
